Data as given in patent publication US7902373B2 (Pfizer Inc, priority 2006, dated 2011).

These compounds were tested against human recombinant H-PGDS (Homo sapiens, UniProt O60760) (assay: Fluorescence intensity h-PGDS TBA enzyme assay). Details: Examples up to 622 (and 3a, 3b).
Format: biochemical

human recombinant H-PGDS, sequence (O60760 whole entry): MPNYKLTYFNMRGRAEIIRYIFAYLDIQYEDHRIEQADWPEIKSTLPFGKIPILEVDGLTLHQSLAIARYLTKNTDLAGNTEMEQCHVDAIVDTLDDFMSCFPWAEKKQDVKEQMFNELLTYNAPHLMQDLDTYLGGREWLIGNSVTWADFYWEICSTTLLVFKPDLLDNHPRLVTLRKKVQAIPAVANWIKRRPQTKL

In order of rising IC50:
1. COc1ccc(CC(C)N2CCC(NC(=O)c3ccc(-c4cccc(F)c4)nc3)CC2)cc1 (centres unmarked) [Example 534, 6-(3-Fluorophenyl)-N-{1-[2-(4-methoxyphenyl)-1-methylethyl]piperidin-4-yl}nicotinamide]  0.234 nM
2. O=C(NC1CCN(C2CCC(O)(c3ccccc3)CC2)CC1)c1ccc(-c2cccc(F)c2)nc1 (centres unmarked) [Example 558, 6-(3-Fluorophenyl)-N-[1-(4-hydroxy-4-phenylcyclohexyl)piperidin-4-yl]nicotinamide]  0.345 nM
3. O=C(NC1CCN(C2CCC(Oc3ccccc3)CC2)CC1)c1ccc(-c2cccc(F)c2)nc1 (centres unmarked) [Example 556, 6-(3-Fluorophenyl)-N-[1-(4-phenoxycyclohexyl)piperidin-4-yl]nicotinamide]  0.364 nM
4. Cn1ncc(Cl)c1CN1CCC(NC(=O)c2ccc(-c3cccc(F)c3)nc2)CC1 [Example 519, N-{1-[(4-Chloro-1-methyl-1H-pyrazol-5-yl)methyl]piperidin-4-yl}-6-(3-fluorophenyl)nicotinamide]  0.445 nM
5. O=C(NC1CCN(C2CCC(O)(c3nccs3)CC2)CC1)c1ccc(-c2cccc(F)c2)nc1 (centres unmarked) [Example 555, 6-(3-Fluorophenyl)-N-{1-[4-hydroxy-4-(1,3-thiazol-2-yl)cyclohexyl]piperidin-4-yl}nicotinamide]  0.928 nM
6. CCC(c1ccc(OC)c(OC)c1)N1CCC(NC(=O)c2ccc(-c3cccc(F)c3)nc2)CC1 (centres unmarked) [Example 541, N-{1-[1-(3,4-Dimethoxyphenyl)propyl]piperidin-4-yl}-6-(3-fluorophenyl)nicotinamide]  0.951 nM
7. O=C(NC1CCN(Cc2coc3ccccc23)CC1)c1ccc(-c2cccc(F)c2)nc1 [Example 518, N-[1-(1-Benzofuran-3-ylmethyl)piperidin-4-yl]-6-(3-fluorophenyl)nicotinamide]  0.96 nM
8. O=C(NC1CCN(C2CCOCC2)CC1)c1ccc(-c2cccc(F)c2)nc1 [Example 547, 6-(3-Fluorophenyl)-N-[1-(tetrahydro-2H-pyran-4-yl)piperidin-4-yl]nicotinamide]  1.14 nM
9. CC(c1ccccc1)N1CCC(NC(=O)c2ccc(-c3cccc(F)c3)nc2)CC1 (centres unmarked) [Example 531, 6-(3-Fluorophenyl)-N-[1-(1-phenylethyl)piperidin-4-yl]nicotinamide]  1.15 nM
10. COc1cc(OC)cc(C(C)N2CCC(NC(=O)c3ccc(-c4cccc(F)c4)nc3)CC2)c1 (centres unmarked) [Example 544, N-{1-[1-(3,5-Dimethoxyphenyl)ethyl]piperidin-4-yl}-6-(3-fluorophenyl)nicotinamide]  1.27 nM
11. COc1cccc(C(C)N2CCC(NC(=O)c3ccc(-c4cccc(F)c4)nc3)CC2)c1 (centres unmarked) [Example 532, 6-(3-Fluorophenyl)-N-{1-[1-(3-methoxyphenyl)ethyl]piperidin-4-yl}nicotinamide]  1.3 nM
12. O=C(NC1CCN(C2CCCC2)CC1)c1ccc(-c2cccc(F)c2)nc1 [Example 551, N-(1-Cyclopentylpiperidin-4-yl)-6-(3-fluorophenyl)nicotinamide]  1.32 nM
13. O=C(NC1CCN(C2CCC(=O)N(CC3CCC3)CC2)CC1)c1ccc(-c2cccc(F)c2)nc1 (centres unmarked) [Example 542, N-{1-[1-(Cyclobutylmethyl)-7-oxoazepan-4-yl]piperidin-4-yl}-6-(3-fluorophenyl)nicotinamide]  1.68 nM
14. O=C(NC1CCN(C2CCC(O)(c3cncnc3)CC2)CC1)c1ccc(-c2cccc(F)c2)nc1 (centres unmarked) [Example 554, 6-(3-Fluorophenyl)-N-[1-(4-hydroxy-4-pyrimidin-5-ylcyclohexyl)piperidin-4-yl]nicotinamide]  1.72 nM
15. COc1ccc(C(C)N2CCC(NC(=O)c3ccc(-c4cccc(F)c4)nc3)CC2)cc1OC (centres unmarked) [Example 536, N-{1-[1-(3,4-Dimethoxyphenyl)ethyl]piperidin-4-yl}-6-(3-fluorophenyl)nicotinamide]  1.75 nM
16. O=CN1CCC(NC(=O)c2ccc(-c3cccc(F)c3)nc2)CC1 [Example 524, 6-(3-Fluorophenyl)-N-(1-formylpiperidin-4-yl)nicotinamide]  1.76 nM
17. COc1ccccc1OCC(C)N1CCC(NC(=O)c2ccc(-c3cccc(F)c3)nc2)CC1 (centres unmarked) [Example 553, 6-(3-Fluorophenyl)-N-{1-[2-(2-methoxyphenoxy)-1-methylethyl]piperidin-4-yl}nicotinamide]  1.78 nM
18. O=C(NC1CCN(Cc2ccc3occc3c2)CC1)c1ccc(-c2cccc(F)c2)nc1 [Example 520, N-[1-(1-Benzofuran-5-ylmethyl)piperidin-4-yl]-6-(3-fluorophenyl)nicotinamide]  1.93 nM
19. CC(C)CN1CCC(N2CCC(NC(=O)c3ccc(-c4cccc(F)c4)nc3)CC2)CCC1=O (centres unmarked) [Example 538, 6-(3-Fluorophenyl)-N-[1-(1-isobutyl-7-oxoazepan-4-yl)piperidin-4-yl]nicotinamide]  1.94 nM
20. CC(c1cnn(-c2ccccc2)c1)N1CCC(NC(=O)c2ccc(-c3cccc(F)c3)nc2)CC1 (centres unmarked) [Example 540, 6-(3-Fluorophenyl)-N-{1-[1-(1-phenyl-1H-pyrazol-4-yl)ethyl]piperidin-4-yl}nicotinamide]  1.99 nM
21. CC(CCn1cccn1)N1CCC(NC(=O)c2ccc(-c3cccc(F)c3)nc2)CC1 (centres unmarked) [Example 548, 6-(3-Fluorophenyl)-N-{1-[1-methyl-3-(1H-pyrazol-1-yl)propyl]piperidin-4-yl}nicotinamide]  2.07 nM
22. COc1ccc(C(C)N2CCC(NC(=O)c3ccc(-c4cccc(F)c4)nc3)CC2)cc1 (centres unmarked) [Example 535, 6-(3-Fluorophenyl)-N-{1-[1-(4-methoxyphenyl)ethyl]piperidin-4-yl}nicotinamide]  2.11 nM
23. COC1CCCC(N2CCC(NC(=O)c3ccc(-c4cccc(F)c4)nc3)CC2)C1 (centres unmarked) [Example 549, 6-(3-Fluorophenyl)-N-[1-(3-methoxycyclohexyl)piperidin-4-yl]nicotinamide]  2.26 nM
24. O=C(NC1CCN(C2CNC2)CC1)c1ccc(-c2cccc(F)c2)nc1 [Example 552, N-(1-Azetidin-3-ylpiperidin-4-yl)-6-(3-fluorophenyl)nicotinamide]  2.37 nM
25. CC(CCO)N1CCC(NC(=O)c2ccc(-c3cccc(F)c3)nc2)CC1 (centres unmarked) [Example 550, 6-(3-Fluorophenyl)-N-[1-(3-hydroxy-1-methylpropyl)piperidin-4-yl]nicotinamide]  2.38 nM
26. COc1cccc(OC)c1C(C)N1CCC(NC(=O)c2ccc(-c3cccc(F)c3)nc2)CC1 (centres unmarked) [Example 533, N-{1-[1-(2,6-Dimethoxyphenyl)ethyl]piperidin-4-yl}-6-(3-fluorophenyl)nicotinamide]  2.42 nM
27. COc1ccc2c(c1)CCC2N1CCC(NC(=O)c2ccc(-c3cccc(F)c3)nc2)CC1 (centres unmarked) [Example 528, 6-(3-Fluorophenyl)-N-[1-(5-methoxy-2,3-dihydro-1H-inden-1-yl)piperidin-4-yl]nicotinamide]  2.49 nM
28. CC(CC1(C)CC1)N1CCC(NC(=O)c2ccc(-c3cccc(F)c3)nc2)CC1 (centres unmarked) [Example 529, 6-(3-Fluorophenyl)-N-{1-[1-methyl-2-(1-methylcyclopropyl)ethyl]piperidin-4-yl}nicotinamide]  2.5 nM
29. CCC(C)N1CCC(NC(=O)c2ccc(-c3cccc(F)c3)nc2)CC1 (centres unmarked) [Example 545, N-(1-sec-Butylpiperidin-4-yl)-6-(3-fluorophenyl)nicotinamide]  2.65 nM
30. O=C(NC1CCN(C2CCC(=O)N(CC3CC3)CC2)CC1)c1ccc(-c2cccc(F)c2)nc1 (centres unmarked) [Example 537, N-{1-[1-(Cyclopropylmethyl)-7-oxoazepan-4-yl]piperidin-4-yl}-6-(3-fluorophenyl)nicotinamide]  2.68 nM
31. COc1ccccc1C(C)N1CCC(NC(=O)c2ccc(-c3cccc(F)c3)nc2)CC1 (centres unmarked) [Example 530, 6-(3-Fluorophenyl)-N-{1-[1-(2-methoxyphenyl)ethyl]piperidin-4-yl}nicotinamide]  2.71 nM
32. COCCN1CCC(N2CCC(NC(=O)c3ccc(-c4cccc(F)c4)nc3)CC2)CCC1=O (centres unmarked) [Example 539, 6-(3-Fluorophenyl)-N-{1-[1-(2-methoxyethyl)-7-oxoazepan-4-yl]piperidin-4-yl}nicotinamide]  2.71 nM
33. CC(=O)NC1CCC(N2CCC(NC(=O)c3ccc(-c4cccc(F)c4)nc3)CC2)CC1 (centres unmarked) [Example 546, N-{1-[4-(Acetylamino)cyclohexyl]piperidin-4-yl}-6-(3-fluorophenyl)nicotinamide]  2.83 nM
34. CC(CC1CC1)N1CCC(NC(=O)c2ccc(-c3cccc(F)c3)nc2)CC1 (centres unmarked) [Example 527, N-[1-(2-Cyclopropyl-1-methylethyl)piperidin-4-yl]-6-(3-fluorophenyl)nicotinamide]  2.84 nM
35. COc1ccc(C(C)N2CCC(NC(=O)c3ccc(-c4cccc(F)c4)nc3)CC2)c(OC)c1 (centres unmarked) [Example 543, N-{1-[1-(2,4-Dimethoxyphenyl)ethyl]piperidin-4-yl}-6-(3-fluorophenyl)nicotinamide]  3.27 nM
36. CC(C)(C)OC(=O)N1[C@@H]2CC[C@H]1CC(NC(=O)c1ccc(-c3cccc(F)c3)nc1)C2 (stereo partly drawn) [Example 522, tert-Butyl (1R,5S)-3-({[6-(3-fluorophenyl)pyridin-3-yl]carbonyl}amino)-8-azabicyclo[3.2.1]octane-8-carboxylate]  6.54 nM
37. NC(=O)CCN1CCC(N2CCC(NC(=O)c3ccc(-c4cccc(F)c4)nc3)CC2)CCC1=O (centres unmarked) [Example 557, N-{1-[1-(3-Amino-3-oxopropyl)-7-oxoazepan-4-yl]piperidin-4-yl}-6-(3-fluorophenyl)nicotinamide]  6.56 nM
38. O=C(NC1CCNCC1c1ccc(F)cc1)c1ccc(-c2cccc(F)c2)nc1 (centres unmarked) [Example 525, 6-(3-Fluorophenyl)-N-[3-(4-fluorophenyl)piperidin-4-yl]nicotinamide]  14.8 nM
39. CC(=O)N1CCC(NC(=O)c2ccc(-c3cccc(F)c3)nc2)C(c2ccc(F)cc2)C1 (centres unmarked) [Example 526]  76.3 nM
40. CC(C)(C)OC(=O)N1CCC(NC(=O)c2ccc(-c3cccc(F)c3)nc2)C(c2ccc(F)cc2)C1 (centres unmarked) [Example 523, tert-Butyl 3-(4-fluorophenyl)-4-({[6-(3-fluorophenyl)pyridin-3-yl]carbonyl}amino)piperidine-1-carboxylate]  217 nM
41. O=C(NC1CCN(C(=O)OCc2ccccc2)CC1)c1ccc(-c2cccc(F)c2)nc1 [Example 521, Benzyl 4-({[6-(3-fluorophenyl)pyridin-3-yl]carbonyl}amino)piperidine-1-carboxylate]  556 nM
